According to publication PMC10005301, “Prediction of the n-Octanol/Water Partition Coefficients of Basic Compounds Using Multi-Parameter QSRR Models Based on IS-RPLC Retention Behavior in a Wide pH Range” (Molecules, 2023):
Like-named read-outs stand apart in the source and are kept apart here.

Key:
[1] = set-up: method as in UFZ-LSER database; details: hydrogen bonding parameter B; ref UFZ-LSER database; cited from earlier work
[2] = logD determined by multi-parameter QSRR models from IS-RPLC logkw
Procedure: Multi-parameter QSRR models including logD, logkw, ne, A, and B were established using the multiple linear regression (MLR) method. In the process of linear fitting, ne, A, B, and their different combinations were introduced to optimize the models.
The logD values reported in the literature for these four compounds were calculated using Equation (S3) with corresponding pKa, logP, and pH values.
(§1) At each pH, the retention time (tR) of every analyte was determined for at least four different volume fractions (φ) of methanol. All the tR values of the solutes were obtained by averaging the results of at least three independent injections. The tR value was corrected using dual-point retention time correction (DP-RTC). For a detailed description of the process, refer to our previous work. For the different hydrophobicities of the studied compounds, benzene, toluene, and benzyl alcohol were used as anchor compounds in the DP-RTC method. The dead time t0 was determined using uracil. For each solute, the logarithm of k was plotted against φ, and logkw was obtained using the Equation (S1). The logD values of the model compounds were calculated using Equation (S3), and the logD–logkw models were established with Equation (S4). The statistical analysis for the regression model was accomplished using Origin 9.4.

[3] = IS-RPLC retention on silica-based C18 column, logkw by linear solvent strength model; format: physicochemical
Procedure: (§2) The retention behavior of the 42 basic compounds (Table 1) were investigated at different ratios of methanol (φ = 0.7–0.1, the interval was 0.1 or 0.05 based on the retention of the investigated solutes). The logk values were plotted versus φ for each solute at pH 7.0, pH 8.0, pH 9.0, and pH 10.0. […] The logD values of the model compounds and verification compounds calculated using Equation (S3) based on the logP and pH values are also listed in Table 1.
The column temperature was set at 30 °C. Methanol and 20 mmol/L ammonium phosphate buffer (pH = 7.0, 8.0, 9.0, 10.0) was used as the mobile phase to perform isocratic elution. The injection volume was 10 µL and the detection wavelength for each eluted compound was set at its optimum absorption wavelength.
as §1, with “9.4. […]” for “9.4.”
(§3) Where, k is the capacity factor, φ is the volume fraction of organic modifier in the mobile phase, and S is the constant obtained by linear regression in the equations. […]
The Eqs. (S1) and (S2) are the basis for the determination of logP by revered- phase liquid chromatography (RPLC) method. For dissociative solutes, it has been confirmed by many studies that the logD calibrated from logP has a better linear correlation with logkw than logP. […]

[4] = Description: as §2
as §1, with “9.4. […]” for “9.4.”
as §3
and logkw, which is usually called Collander equation [25 ]. lo g lo g wPm k n= + (S2)
Where, m and n are constants obtained by linear regression.
The Eqs. (S1) and (S2) are the basis for the determination of logP by revered- phase liquid chromatography (RPLC) method. For dissociative solutes, it has been confirmed by many studies that the logD calibrated from logP has a better linear correlation with logkw than logP.
For basic compounds, the logD value can be calibrated from Eq. (S3), and the Collander equation can be rewritten into Eq. (S4). log log( )D − −+ −+= + ++P […]
lo g ' lo g 'Dm k n= +w (S4)
Where, pKa1, pKa2 , … p Kan are the dissociation constants of basic compounds of corresponding acids in the mobile phase, pH is the pH value of mobile phase, m′ and n′ are fitting parameters. Han et al. pointed out that although mobile phase pH and pKa of solutes will change along with the varied organic modifier fraction, the difference between a couple of relevant pH and pKa is a constant. Therefore, the used pH and pKa in this paper were both the values obtained at 100% aqueous phase. […]

[5] = IS-RPLC retention (logkw), pH 7
[6] = IS-RPLC retention (logkw), pH 8
[7] = IS-RPLC retention (logkw), pH 9
[8] = IS-RPLC retention (logkw), pH 10
[9] = pH 7.0, methanol/20 mmol/L ammonium phosphate buffer, Welch Xtimate C18, 30 °C, 100% aqueous extrapolation
[10] = pH 8.0, methanol/20 mmol/L ammonium phosphate buffer, Welch Xtimate C18, 30 °C, 100% aqueous extrapolation
[11] = pH 9.0, methanol/20 mmol/L ammonium phosphate buffer, Welch Xtimate C18, 30 °C, 100% aqueous extrapolation
[12] = pH 10.0, methanol/20 mmol/L ammonium phosphate buffer, Welch Xtimate C18, 30 °C, 100% aqueous extrapolation
[13] = pH 7.0, calculated with literature logP, pKa and pH, Equation (S3)
[14] = pH 8.0, calculated with literature logP, pKa and pH, Equation (S3)
[15] = pH 9.0, calculated with literature logP, pKa and pH, Equation (S3)
[16] = pH 10.0, calculated with literature logP, pKa and pH, Equation (S3)

Row | SMILES | B [1] | logkw-pH 7.0 [3, 9] | logkw-pH 8.0 [3, 10] | logkw-pH 9.0 [3, 11] | logkw-pH 10.0 [3, 12] | chromatographic logD ([2]; pH 7) | chromatographic logD ([2]; pH 8) | chromatographic logD ([2]; pH 9) | chromatographic logD ([2]; pH 10) | other results
1 | O=C(n1ccnc1)n1ccnc1 [1,1’-Carbonyldiimidazole] | 1.47 | −0.39 | −0.38 | −0.27 | −0.15 |  |  |  |  | chromatographic logD [2, 5]: -0.52; chromatographic logD [2, 6]: -0.46; chromatographic logD [2, 7]: -0.84; chromatographic logD [2, 8]: -0.89
2 | Nc1ccccc1N [1,2-diaminobenzene] | 1.26 |  |  |  |  | 0.38 | 0.38 | 0.07 | 0.28 | logkw-pH 7.0 ([3]; pH 7): 0.50; logkw-pH 8.0 ([3]; pH 8): 0.49; logkw-pH 9.0 ([3]; pH 9): 0.29; logkw-pH 10.0 ([3]; pH 10): 0.60
3 | Nc1cccc(N)c1 [1,3-diaminobenzene] | 1.28 | 0.17 | 0.07 | −0.16 | 0.21 | 0.03 | -0.02 | -0.41 | -0.15 | 
4 | Nc1ccc([N+](=O)[O-])cc1[N+](=O)[O-] [2,4-Dinitroaniline] | 1.44 | 1.80 | 1.86 | 1.78 | 1.92 | 1.71 | 1.69 | 1.58 | 1.64 | 
5 | Nc1ncncn1 [2-Amino-1,3,5-triazine] | 1.00 | 1.36 | 1.36 | 1.38 | 1.43 |  |  |  |  | chromatographic logD [2, 5]: 1.27; chromatographic logD [2, 6]: 1.22; chromatographic logD [2, 7]: 0.95; chromatographic logD [2, 8]: 0.88
6 | COc1nc(C)nc(N)n1 [2-Amino-4-methyl-6-methoxy-s-triazine] | 1.07 | 1.36 | 1.36 | 1.38 | 1.43 |  |  |  |  | chromatographic logD [2, 5]: 1.28; chromatographic logD [2, 6]: 1.22; chromatographic logD [2, 7]: 0.94; chromatographic logD [2, 8]: 0.86
7 | Nc1c(Cl)cc([N+](=O)[O-])cc1[N+](=O)[O-] [2-Chloro-4,6-dinitroaniline] | 1.56 | 2.19 | 2.25 | 2.26 | 2.30 | 2.11 | 2.07 | 1.99 | 1.97 | 
8 | Nc1ccc([N+](=O)[O-])cc1Cl [2-Chloro-4-nitroaniline] | 1.41 |  |  |  |  | 1.99 | 1.96 | 1.93 | 1.92 | logkw-pH 7.0 ([3]; pH 7): 2.07; logkw-pH 8.0 ([3]; pH 8): 2.13; logkw-pH 9.0 ([3]; pH 9): 2.14; logkw-pH 10.0 ([3]; pH 10): 2.18
9 | Cc1cc([N+](=O)[O-])ccc1N [2-Methyl-4-nitroaniline] | 1.22 | 1.76 | 1.79 | 1.46 | 1.84 | 1.67 | 1.63 | 1.31 | 1.6 | 
10 | Cc1ccccn1 [2-Picoline] | 0.60 | 1.31 | 1.32 | 1.34 | 1.36 |  |  |  |  | logDpH 7.0 ([4]; pH 7): 1.05; logDpH 8.0 ([4]; pH 8): 1.09; logDpH 9.0 ([4]; pH 9): 1.09; logDpH 10.0 ([4]; pH 10): 1.09
11 | Nc1ccc(F)cc1 [4-Fluoroaniline] | 1.76 | 1.13 | 1.12 | 1.14 | 1.18 |  |  |  |  | logDpH 7.0 [4, 13]: 1.15; logDpH 8.0 [4, 14]: 1.15; logDpH 9.0 [4, 15]: 1.15; logDpH 10.0 [4, 16]: 1.15
12 | Nc1ccccc1 [Aniline] | 1.86 | 0.96 | 0.95 | 0.97 | 1.02 |  |  |  |  | logDpH 7.0 ([4]; pH 7): 0.90; logDpH 8.0 ([4]; pH 8): 0.90; logDpH 9.0 [4, 15]: 0.90; logDpH 10.0 ([4]; pH 10): 0.90
13 | c1c[nH]cn1 [Imidazole] | 0.71 | −0.53 | −0.39 | −0.34 | −0.16 |  |  |  |  | 
14 | CN(C)Cc1ccccc1 [N, N-Dimethylbenzylamine] | 0.67 | 0.97 | 1.61 | 2.13 | 2.44 |  |  |  |  | logDpH 7.0 [4, 13]: 0.17; logDpH 8.0 [4, 14]: 1.12; logDpH 9.0 [4, 15]: 1.77; logDpH 10.0 [4, 16]: 1.95
15 | c1ccncc1 [Pyridine] |  |  |  |  |  |  |  |  |  | logkw-pH 7.0 ([3]; pH 7): 0.70; logkw-pH 8.0 ([3]; pH 8): 0.92; logkw-pH 9.0 ([3]; pH 9): 1.01; logkw-pH 10.0 ([3]; pH 10): 1.05
